Data set [1] has as its system Cimex lectularius. Briefly: Three-day survivorship of bed bugs fed NF-kB signaling inhibitors combined with B. thuringiensis israelensis. It is filed as in vivo. The following applies: 10 μg/mL inhibitor in blood meal with bacteria; three days; Gehan-Breslow test p=0.86. As for the experimental part:
(§1) For the following non-limiting Examples, the Cincinnati SRL strain of Cimex lectularius was used for the population of bed bugs. This strain was derived from a population of individuals collected by technicians from Sierra Research Laboratories, Inc. (Modesto, Calif.) in 2007 and has been maintained under laboratory conditions since this time. Colonies were maintained at the University of South Dakota in plastic jars containing corrugated cardboard harborages at 28 +/−1° C. and 60-70% relative humidity on a 12:12 photoperiod. The colonies were fed aseptically collected defibrinated rabbit blood (Hemostat Laboratories, Dixon, Calif.) once per week using an artificial membrane system (Hemotek Ltd., Blackburn, United Kingdom).
The effect of the combination treatment of NF-kB signaling inhibitors and bacterial entomopathogens on bed bug resistance to the bacterial entomopathogens was analyzed. To determine if NF-kB signaling inhibitors could reduce resistance to orally provisioned entomopathogenic bacteria, cultures of each bacterium were grown overnight by shaking at room temperature. […] The evaluated inhibitors or DMSO diluent were added to the blood meal containing diluted bacteria to a final concentration of 10 ug/mL. […] Short-term mortality was then monitored over a period of three days. […]

For data set [2], the system named is Cimex lectularius. Briefly: Three-day survivorship of bed bugs fed P. entomophila alone or combined with NF-kB signaling inhibitors. It is filed as in vivo. The conditions noted are these: for effect on mortality during P. entomophila infection: 10 μg/mL inhibitor in blood meal with P. entomophila, three days, relative to bacterium alone; for mortality at 10 µg/mL: Cimex lectularius, P. entomophila combined with 10 μg/mL inhibitor in blood meal. The protocol:
as §1
The effect of the combination treatment of NF-kB signaling inhibitors and bacterial entomopathogens on bed bug resistance to the bacterial entomopathogens was analyzed. To determine if NF-kB signaling inhibitors could reduce resistance to orally provisioned entomopathogenic bacteria, cultures of each bacterium were grown overnight by shaking at room temperature. The following day, cultures of P. entomophila were standardized to an OD600 value of 2.3 (3×10^8 colony forming units/mL) and cultures of B. thuringiensis isralensis were standardized to an OD600 value of 2.2 (7×10^7 colony forming units/mL), based on their overnight growth across replicates. P. entomophila was then further diluted 1:100 in defibrinated rabbit blood, whereas B. thuringiensis israelensis was further diluted 1:50 in defibrinated rabbit blood due to its generally lower virulence. The evaluated inhibitors or DMSO diluent were added to the blood meal containing diluted bacteria to a final concentration of 10 ug/mL. The groups of bed bugs fed DMSO diluent in blood were included as controls. Groups of bed bugs consisting of roughly even numbers of adult male and female bed bugs that had not blood fed for at least seven days were provided access to treated blood meals using the artificial membrane system (Hemotek Ltd.) until fully engorged. Short-term mortality was then monitored over a period of three days. Three independent biological replicates with 10-14 insects per group were carried out and cumulative survival curves were compared using the Gehan-Breslow-Wilcoxon test.

In the next data set the test system is Pseudomonas entomophila. Nature of the data set: Direct effects of NF-kB signaling inhibitors on growth of P. entomophila cultures (OD600). It is filed as cell-based. The following applies: 10 μg/mL; LB medium; shaken overnight at room temperature. An excerpt: (§2) The effects of NF-kB signaling inhibitors were further assessed on growth of bacterial entomopathogen cultures. Two bacterial entomopathogens were used in the present example. The Gram-positive bacterium B. thuringiensis israelensis was obtained from Carolina Biological Supply (Burlington, N.C., USA). This bacterium was investigated due to its potential activity against bed bugs when ingested. The Gram-negative bacterium P. entomophila was obtained from the German Collection of Microorganisms and Cell Cultures (DSMZ, Braunschweig, Germany). Stocks of these bacteria were grown overnight in Luria-Bertani (LB) medium on a shaker at room temperature.
(§3) To determine if the inhibitors had any direct impact on the growth of entomopathogenic bacteria prior to their administration in vivo, cultures of each bacterium were inoculated into LB medium and individual inhibitors were added to the cultures at a final concentration of 10 μg/mL. Cultures containing equal volumes of DMSO diluent served as controls. After shaking overnight at room temperature, growth of bacteria in the presence of inhibitors was quantified by measuring optical density of the cultures at 600 nm (OD600) on a spectrophotomer. OD600 values of cultures containing inhibitors were then normalized to DMSO controls. Three replicates were conducted with each inhibitor and growth was compared to controls (set at 1) using a one-sample t-test.

In data set [3] the test system is Bacillus thuringiensis israelensis. Briefly: Direct effects of NF-kB signaling inhibitors on growth of B. thuringiensis israelensis cultures (OD600). It is filed as cell-based. The conditions noted are these: 10 μg/mL; LB medium; shaken overnight at room temperature.
Text: as §2, §3

Data set [4] has as its system Cimex lectularius. Briefly: Estimation of P. entomophila load in vivo in bed bugs (CFU/insect). The conditions noted are these: 10 μg/mL inhibitor with P. entomophila in blood meal, 24 hours post-infection. The protocol: The bacterial load of entomopathogen was further analyzed to determine whether enhanced mortality during P. entomophila infection was associated with increased bacterial load (reduced resistance). For this analysis, adult male bed bugs that had not fed for at least seven days were provided access to blood meals containing P. entomophila with or without 10 μg/mL of IKK16 using the artificial membrane system (Hemotek Ltd.) until fully engorged. The two treatments were prepared as described in Example 3. After 24 hours, live and dead bed bugs from each infected treatment group were collected. Individual insects were surface sterilized by rinsing with 10% bleach and 70% ethanol and homogenized in sterile phosphate buffered saline (PBS). Homogenates were then serial diluted in PBS and plated on LB agar plates to estimate the load of P. entomophila bacteria expressed as colony forming units (CFU) per insect after 24 hours of incubation at 28° C. Because culturable bed bug commensals in the gut are minimal and slow growing, this methodology allows for the specific quantification of P. entomophila. Two independent biological replicates were conducted (15 individual insects examined per treatment group in total). The insects in each treatment were further subdivided into dead and live categories for analysis. […]

For a further data set, the system named is Rhodnius prolixus. The conditions noted are these: cited from earlier work.
Data set [5] relates to Cimex lectularius. Briefly: Toxicity of NF-kB signaling inhibitors fed as lone agents to bed bugs (seven-day survivorship). The conditions noted are these: 5 μg/mL or 10 μg/mL in blood meal; 7 days; chi-square test p=0.54. It is filed as in vivo. The protocol:
as §1
The bed bugs were fed four individual small molecule inhibitors of NF-kB signaling (BMS345541, IKK16, IMD0354, Takinib) alone or in combination with two different bacterial entomopathogens (Pseudomonas entomophila and Bacillus thuringiensis israelensis). […] The effects on both bed bug mortality and bacterial growth were assessed.
The toxicity of NF-kB signaling inhibitors was analyzed by feeding the inhibitors as lone agents to bed bugs. In particular, the four individual small molecule inhibitors of NF-kB signaling (BMS345541, IKK16, IMD0354, Takinib) were analyzed. […] Mortality was then monitored regularly over a period of seven days. […]

Like-named read-outs stand apart in the source and are kept apart here.

Take `Cc1ccc2nc(NCCN)c3ncc(C)n3c2c1` [BMS345541, N1-(1,8-dimethylimidazo[1,2-a]quinoxalin-4-yl)ethane-1,2-diamine]: the “effect on mortality during infection with B. thuringiensis” value in the data set on Cimex lectularius [1] was “little to no effect”. The “effect on mortality during P. entomophila infection” value in the data set with Cimex lectularius [2] is reported as “little to no effect”. Besides, the “growth of P. entomophila relative to DMSO control (OD600)” value with Pseudomonas entomophila is on record as “did not affect the growth”. In data set [3], the “growth of B. thuringiensis israelensis relative to DMSO control (OD600)” value was “did not affect the growth”.
Regarding `O=C(c1ccc(Nc2nccc(-c3cc4ccccc4s3)n2)cc1)N1CCC(N2CCCC2)CC1` [IKK16, (4-((4-(Benzo[b]thiophen-2-yl)pyrimidin-2-yl)amino)phenyl)(4-(pyrrolidin-1-yl)piperidin-1-yl)methanone], in the data set with Cimex lectularius [2], the “effect on mortality during P. entomophila infection” value is “significantly increased”. Moreover, the mortality (as a rule, the share of the test organisms that died) at 10 µg/mL worked out at 74.3% in the data set on Cimex lectularius [2] (24 h, read-out: mortality at day 1); 80% in the data set on Cimex lectularius [2] (48 h, read-out: mortality at day 2); 82.9% in the data set with Cimex lectularius [2] (72 h, read-out: mortality at day 3). Besides, in the data set on Pseudomonas entomophila, the “growth of P. entomophila relative to DMSO control (OD600)” value is given as “did not affect the growth”. The “effect on tolerance (mortality with lower bacterial loads) in vivo” value in the data set on Cimex lectularius [4] is given as “did not affect tolerance”. The “P. entomophila load in live bed bugs versus live counterparts not treated with the inhibitor” value with Cimex lectularius [4] (ANOVA p=0.021) was “higher loads”. Besides, in data set [3], the “growth of B. thuringiensis israelensis relative to DMSO control (OD600)” value is reported as “inhibited the growth”.
In the case of `O=C(Nc1cc(C(F)(F)F)cc(C(F)(F)F)c1)c1cc(Cl)ccc1O` [IMD0354, N-(3,5-bis(trifluoromethyl)phenyl)-5-chloro-2-hydroxybenzamide], in the data set with Rhodnius prolixus, the “expression of antimicrobial peptides” value was “suppressed expression”; the “mortality during both bacterial and parasitic infections” value is “increased mortality”. Moreover, the “direct toxicity to bed bugs (mortality relative to DMSO controls)” value in the data set with Cimex lectularius [5] was “not directly toxic”. Besides, the “growth of P. entomophila relative to DMSO control (OD600)” value in the data set on Pseudomonas entomophila is reported as “inhibited the growth”. In addition, the “growth of B. thuringiensis israelensis relative to DMSO control (OD600)” value in data set [3] is “inhibited the growth”.
For `CCCn1/c(=N/C(=O)c2cccc(C(N)=O)c2)[nH]c2ccccc21` [Takinib, 3-N-(1-propylbenzimidazol-2-yl)benzene-1,3-dicarboxamide], in the data set on Cimex lectularius [1], the “effect on mortality during infection with B. thuringiensis” value is listed as “little to no effect”. For the same molecule, the “effect on mortality during P. entomophila infection” value in the data set with Cimex lectularius [2] is “little to no effect”. For the same molecule, the “growth of P. entomophila relative to DMSO control (OD600)” value in the data set with Pseudomonas entomophila is given as “did not affect the growth”. The “growth of B. thuringiensis israelensis relative to DMSO control (OD600)” value in data set [3] is “did not affect the growth”.

Source of the values: patent US20220378046A1, “EFFECTS OF NF-kB SIGNALING INHIBITORS ON BED BUG RESISTANCE TO ORALLY PROVISIONED ENTOMOPATHOGENIC BACTERIA” (South Dakota Board of Regents, priority 2021, published 2022).
